# Test results from patent publication US10954253B2, “1,2-dihydro-3H-pyrazolo[3,4-d]pyrimidin-3-one derivative as Wee1 inhibitor” (SHIJIAZHUANG SAGACITY NEW DRUG DEVELOPMENT CO., LTD., priority 2017, dated 2021).
# Target: Wee1 (Homo sapiens (Human), UniProt P30291)
# Test: In vitro enzymatic inhibitory activity (33P-ATP filter-binding kinase assay, MBP substrate)
# Type: biochemical
# Details: Wee-1 150 nM, MBP 20 μM
# Protocol: The compounds of the present invention for experimental use were all self-prepared, and their chemical names and structural formulas are shown in the preparation embodiments of the respective compounds. The experimental tests were carried out in Reaction Biology Corporation, USA, and the experimental results were provided by the company. Basic reaction buffer: 20 mM hydroxyethylpiperazine ethanesulfuric acid (pH 7.5), 10 mM magnesium chloride, 1 mM EGTA, 0.02% Brij35, 0.02 mg/mL bovine serum albumin, 0.1 mM Na3VO4, 2 mM DTT, 1% DMSO Enzyme: Wee-1 concentration is 150 nM Matrix: MBP concentration is 20 μM The tested compound was formulated into a 5 mM solution with 100% DMSO, and a 10 points 3-fold gradient dilution was performed with DMSO through an automated pipetting station epMotion 5070. 1. Fresh matrix configuration reaction buffer was prepared; 2. The Wee-1 was added into the matrix solution and shaked gently; 3. DMSO solution of the compound were added into the kinase reaction mixture using an acoustic technique (Echo 550; nanoliter range) and incubated for 20 minutes at room temperature; 4. ^33P-ATP (specific activity, 10 μCi/μL) was added into the reaction mixture to stimulate the reaction; 5. Incubated for 2 hours at room temperature; 6. Kinase activity was detected by filter-binding method.
# Wee1, sequence (P30291 whole entry): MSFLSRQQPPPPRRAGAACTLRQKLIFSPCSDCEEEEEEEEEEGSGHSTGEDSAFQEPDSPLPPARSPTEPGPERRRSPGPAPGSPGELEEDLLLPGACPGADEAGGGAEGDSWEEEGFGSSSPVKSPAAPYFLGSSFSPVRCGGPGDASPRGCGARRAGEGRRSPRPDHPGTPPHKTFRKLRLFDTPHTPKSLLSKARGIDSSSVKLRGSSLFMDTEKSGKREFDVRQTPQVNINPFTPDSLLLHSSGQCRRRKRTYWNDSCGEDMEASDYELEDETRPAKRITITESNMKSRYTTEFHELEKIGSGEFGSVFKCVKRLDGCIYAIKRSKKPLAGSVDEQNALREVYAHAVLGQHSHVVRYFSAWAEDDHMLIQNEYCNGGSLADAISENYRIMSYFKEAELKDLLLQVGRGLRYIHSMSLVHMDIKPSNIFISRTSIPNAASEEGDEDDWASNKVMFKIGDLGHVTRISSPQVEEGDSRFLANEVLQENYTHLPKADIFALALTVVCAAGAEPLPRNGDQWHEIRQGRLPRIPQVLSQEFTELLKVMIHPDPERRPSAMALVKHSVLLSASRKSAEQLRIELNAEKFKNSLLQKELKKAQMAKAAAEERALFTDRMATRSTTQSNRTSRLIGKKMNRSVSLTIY
row,IC50 [nM],Compound
1,8.3,"C=CCn1c(=O)c2cnc(Nc3ccc(N4CCC5(CCN(CC#N)CC5)CC4)cc3)nc2n1-c1cccc(C(C)(C)O)n1 [Compound 63, 2-(9-(4((2-allyl-1(6-(2-hydroxypropan-2-yl)pyridin-2-yl)-3-oxo-2,3-dihydro-1H-pyrazolo[3,4-d]pyrimidin-6-yl)amino)phenyl)-3,9-diazaspiro[5.5]undecan-3-yl)acetonitrile]"
2,9.9,"C=CCn1c(=O)c2cnc(Nc3ccc(N4CCC5(CCN(CCOC)CC5)CC4)cc3)nc2n1-c1cccc(C(C)(C)O)n1 [Compound 64, 2-allyl-1-(6-(2-hydroxypropan-2-yl)pyridin-2-yl)-6-((4-(9-(2-methoxylethyl)-3,9-diazaspiro[5.5]undecan-3-yl)phenyl)amino)-1H-pyrazolo[3,4-d]pyrimidin-3(2H)-one]"
3,41.6,"C=CCn1c(=O)c2cnc(Nc3ccc(N4CCC5(CCN(C)CC5)CC4)cc3)nc2n1-c1cccc(C2(F)CC(F)(F)C2)n1 [Compound 65, 2-allyl-6((4-(9-methyl-3,9-diazaspiro[5.5]undecan-3-yl)phenyl)amino)-1-(6-(1,3,3-trifluorocyclobutyl)pyridin-2-yl)-1H-pyrazolo[3,4-d]pyrimidin-3(2H)-one]"
4,15,"C=CCn1c(=O)c2cnc(Nc3ccc(N4CCC5(CCN(C)CC5)CC4)cc3)nc2n1-c1cccc(C2(O)CC(F)(F)C2)n1 [Compound 66, 2-allyl-1-(6-(3,3-difluoro-1-hydroxycyclobutyl)pyridin-2-yl)-6-((4-(9-methyl-3,9-diazaspiro[5.5]undecan-3-yl)phenyl)amino)-1H-pyrazolo[3,4-d]pyrimidin-3(2H)-one]"
5,12.8,C=CCn1c(=O)c2cnc(Nc3ccc(N4CCC5(CCN(C)CC5)CC4)cc3)nc2n1-c1cccc(C(C)C)n1 [Compound 67]
6,30.4,"C=CCn1c(=O)c2cnc(Nc3ccc(N4CCC5(CCN(C)CC5)CC4)cc3)nc2n1-c1cccc(C2(C)CC2)n1 [Compound 68, 2-allyl-6-((4-(9-methyl-3,9-diazaspiro[5.5]undecan-3-yl)phenyl)amino)-1-(6-(1-methylcyclopropyl)pyridin-2-yl)-1H-pyrazolo[3,4-d]pyrimidin-3(2H)-one]"
7,5.7,C=CCn1c(=O)c2cnc(Nc3ccc(N4CCC5(CC4)CCN(C4COC4)CC5)cc3)nc2n1-c1cccc(C(C)(C)O)n1 [Compound 69]
8,20.3,"C=CCn1c(=O)c2cnc(Nc3ccc(N4CCC5(CCN(C(=O)OC)CC5)CC4)cc3)nc2n1-c1cccc(C(=O)N(C)C)n1 [Compound 70, methyl-9-(4-((2-allyl-1-(6-(dimethylaminoformyl)pyridin-2-yl)-3-oxo-2,3-dihydro-1H-pyrazolo[3,4-d]pyrimidin-6-yl)amino)phenyl)-3,9-diazaspiro[5.5]undecan-3-carboxylate]"
9,15.7,"C=CCn1c(=O)c2cnc(Nc3ccc(N4CCC5(CCN(C(=O)OC)CC5)CC4)cc3)nc2n1-c1cccc(C2(O)COC2)n1 [Compound 71, methyl-9-(4-((2-allyl-1-(6-(3-hydroxyoxetan-3-yl)pyridin-2-yl)-3-oxo-2,3-dihydro-1H-pyrazolo[3,4-d]pyrimidin-6-yl)amino)phenyl)-3,9-diazaspiro[5.5]undecan-3-carboxylate]"
10,8.2,C=CCn1c(=O)c2cnc(Nc3ccc(N4CCC5(CCN(C)CC5)CC4)cc3)nc2n1-c1cccc(N2CC(F)(F)C2)n1 [Compound 72]
11,5.3,"C=CCn1c(=O)c2cnc(Nc3ccc(N4CCC5(CCN(C)CC5)CC4)cc3)nc2n1-c1cccc(C2(OC)COC2)n1 [Compound 73, 2-allyl-1-(6-(3-methoxyoxetan-3-yl)pyridin-2-yl)-6-((4-(9-methyl-3,9-diazaspiro[5.5]undecan-3-yl)phenyl)amino)-1H-pyrazolo[3,4-d]pyrimidin-3(2H)-one]"
12,13,"C=CCn1c(=O)c2cnc(Nc3ccc(N4CCC5(CCNCC5)CC4)cc3)nc2n1-c1cccc(C(C)(C)O)n1 [Compound 76, 6-((4-(-3,9-diazaspiro[5.5]undecan-3-yl)phenyl)amino)-2-allyl-1-(6-(2-hydroxypropan-2-yl)pyridin-2-yl)-1H-pyrazolo[3,4-d]pyrimidin-3(2H)-one]"
13,9,"C=CCn1c(=O)c2cnc(Nc3ccc(N4CCC5(CCNCC5)CC4)cc3)nc2n1-c1cccc(C2(F)COC2)n1 [Compound 77, 6-((4-(-3,9-diazaspiro[5.5]undecan-3-yl)phenyl)amino)-2-allyl-1-(6-(3-fluoro-oxetan-3-yl)pyridin-2-yl)-1H-pyrazolo[3,4-d]pyrimidin-3(2H)-one]"
14,32,C=CCn1c(=O)c2cnc(Nc3ccc(N4CCC5(CCN(C)CC5)CC4)cc3)nc2n1-c1cccc(C(C)(O)C(F)F)n1 (stereo not drawn) [Compound 78]
15,43,"C=C(F)Cn1c(=O)c2cnc(Nc3ccc(N4CCC5(CCN(C)CC5)CC4)cc3)nc2n1-c1cccc(C(C)(C)O)n1 [Compound 79, 2-(2-fluoroallyl)-1-(6-(2-hydroxypropan-2-yl)pyridin-2-yl)-6-((4-(9-methyl-3,9-diazaspiro[5.5]undecan-3-yl)phenyl)amino)-1H-pyrazolo[3,4-d]pyrimidin-3(2H)-one]"
16,49,"C=CCn1c(=O)c2cnc(Nc3ccc(N4CCC5(CCN(C)CC5)CC4)cc3)nc2n1-c1ccc(F)c(C(C)(C)O)n1 [Compound 80, 2-allyl-1-(5-fluoro-6-(2-hydroxypropan-2-yl)pyridin-2-yl)-6-((4-(9-methyl-3,9-diazaspiro[5.5]undecan-3-yl)phenyl)amino)-1H-pyrazolo[3,4-d]pyrimidin-3(2H)-one]"
17,67.4,"C=CCn1c(=O)c2cnc(Nc3ccc(N4CCC5(CCN(C)CC5)CC4)cc3)nc2n1-c1ccccc1 [Embodiment 1, 2-allyl-6-((4-(9-methyl-3,9-diazaspiro[5.5]undecan-3-yl)phenyl)amino)-1-phenyl-1H-pyrazolo[3,4-d]pyrimidin-3(2H)-one]"
18,43.6,"C=CCn1c(=O)c2cnc(Nc3ccc(N4CCC5(CCNCC5)CC4)cc3)nc2n1-c1ccccc1 [Embodiment 2, 6-((4-(3,9-diazaspiro[5.5]undecan-3-yl)phenyl)amino)-2-allyl-1-phenyl-1H-pyrazolo[3,4-d]pyrimidin-3(2H)-one]"
19,24.6,"C=CCn1c(=O)c2cnc(Nc3ccc(N4CCC5(CCN(C)CC5)CC4)cc3)nc2n1-c1ccccn1 [Embodiment 3, 2-allyl-6-((4-(9-methyl-3,9-diazaspiro[5.5]undecan-3-yl)phenyl)amino)-1-(pyridin-2-yl)-1H-pyrazolo[3,4-d]pyrimidin-3(2H)-one]"

row,Compound,IC50 [nM]
1,"C=CCn1c(=O)c2cnc(Nc3ccc(N4CCC5(CCN(C)CC5)CC4)cc3)nc2n1-c1cccc([C@@](C)(O)C(F)(F)F)n1 [Compound 74, (R)-2-allyl-6-((4-(9-methyl-3,9-diazaspiro[5.5]undecan-3-yl)phenyl)amino)-1-(6-(1,1,1-trifluoro-2-hydroxypropan-2-yl)pyridin-2-yl)-1H-pyrazolo[3,4-d]pyrimidin-3(2H)-one]",13
2,"C=CCn1c(=O)c2cnc(Nc3ccc(N4CCC5(CCN(C)CC5)CC4)cc3)nc2n1-c1cccc([C@](C)(O)C(F)(F)F)n1 [Compound 75, (S)-2-allyl-6-((4-(9-methyl-3,9-diazaspiro[5.5]undecan-3-yl)phenyl)amino)-1-(6-(1,1,1-trifluoro-2-hydroxypropan-2-yl)pyridin-2-yl)-1H-pyrazolo[3,4-d]pyrimidin-3(2H)-one]",17
